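1) Cells in 96-well plates. 2) Compound, 48 h, 5 concentrations. 3) Linear interpolation between surrounding doses. 4) Unreached endpoint = highest concentration. At the GI50, growth is halved.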 The source made the active and inactive calls. Rule as the data show it: active = GI50 up to about 1.1 µM and inactive = higher.
Columns and labels:
Assay in all cases: NCI-60 cell line screen, 48 h
[1] = system: HL-60
[2] = system: HT-29
[3] = system: NCI-H522
[4] = system: TK-10
[5] = system: BT-549
[6] = system: SNB-19
[7] = system: NCI-H23
[8] = system: COLO 205
[9] = system: HOP-92
[10] = system: CAKI-1
[11] = system: UO-31
[12] = system: SW-620
[13] = system: NCI-H226
[14] = system: SK-MEL-28
[15] = system: NCI/ADR-RES
[16] = system: IGROV-1
[17] = system: MDA-MB-231
[18] = system: OVCAR-8
[19] = system: LOX IMVI
[20] = system: UACC-257

Measured: GI50

CCOC(=O)CCN1C(=O)c2c(NC(=O)C(=O)O)cccc2S1(=O)=O
inactive: [1] > 100 µM | [2] > 100 µM | [3] > 100 µM | [4] > 100 µM | [5] > 100 µM | [6] > 100 µM | [7] > 100 µM | [8] > 100 µM | [9] > 100 µM | [10] > 100 µM | [11] > 100 µM | [12] > 100 µM | [13] > 100 µM | [14] > 100 µM | [15] > 100 µM | [16] > 100 µM | [17] > 100 µM | [18] > 100 µM | [19] > 100 µM | [20] > 100 µM

O=C(Nc1ccccc1C(=O)NCCCO)/C(=C/c1ccccc1O)NC(=O)c1ccccc1
inactive: [1] > 100 µM | [2] > 100 µM | [3] 25.2 µM | [4] 97.9 µM | [5] 19.8 µM | [6] 16.9 µM | [7] 36.1 µM | [8] > 100 µM | [9] 53.3 µM | [10] > 100 µM | [11] 20.7 µM | [12] > 84.3 µM | [13] 39.3 µM | [14] > 100 µM | [15] 17 µM | [16] 36.6 µM | [17] 26.7 µM | [18] > 42.7 µM | [19] 21.5 µM | [20] > 100 µM

Fc1nc(Sc2ncnc3nc[nH]c23)nc(-c2c3ccccc3c3sc4ccccc4n23)n1
inactive: [1] > 100 µM | [2] > 100 µM | [3] > 100 µM | [4] > 100 µM | [5] > 100 µM | [6] > 100 µM | [7] > 100 µM | [8] > 100 µM | [9] > 100 µM | [10] > 100 µM | [11] > 100 µM | [12] > 100 µM | [13] > 100 µM | [14] 85.5 µM | [15] > 100 µM | [16] > 100 µM | [17] > 100 µM | [18] > 100 µM | [19] 80 µM | [20] > 100 µM

Cn1cnc2c(NCc3ccccc3)nc(NCCO)nc21 [OLOMOUCINE]
inactive: [1] 36.9 µM | [2] 71.4 µM | [3] 51.4 µM | [4] 63.8 µM | [5] 53.1 µM | [6] 48.6 µM | [7] 59.6 µM | [8] 30.1 µM | [9] 61.2 µM | [10] 33.7 µM | [11] 31.4 µM | [12] 43.5 µM | [13] 51.3 µM | [14] 52.8 µM | [15] > 93.8 µM | [16] 42.3 µM | [17] 92.7 µM | [18] 66.2 µM | [19] 24 µM | [20] > 95.3 µM

Source: ChEMBL document CHEMBL1201862, “PubChem BioAssay data set” (2004)
